Values of other authors as cited in patent US20230000079A1, “COMBINATION COMPRISING A TRIKETONE HERBICIDE AND A DIPHENYLETHER HERBICIDE, AND A METHOD FOR MAKING AND USING THE COMBINATION” (Generic Crop Science LLC, priority 2021, published 2023).
Values after ≈ are worked out from the molar mass of the structure shown.

Row | Structure (SMILES) | solubility in most organic solvents | solubility in water | water solubility (20° C.)
1 | CCOc1cc(Oc2ccc(C(F)(F)F)cc2Cl)ccc1[N+](=O)[O-] [Oxyfluorfen, 2-chloro-4-(trifluoromethyl)phenyl 3-ethoxy-4-nitrophenyl ether] | highly soluble | 0.1 µg/mL (≈ 0.276 µM) | –
2 | CS(=O)(=O)c1ccc(C(=O)C2C(=O)CCCC2=O)c([N+](=O)[O-])c1 [Mesotrione, 2-[4-(methylsulfonyl)-2-nitrobenzoyl]cyclohexane-1,3-dione] | – | – | 1,500 mg/L
